Measurements: publication PMC12551991, “Inheritance and enzymatic basis of anthocyanin malonylation in Fragaria × ananassa” (The Plant Journal, 2025)

Experiments:
Assay in all cases: LC-MS malonyltransferase assay, non-linear Michaelis-Menten fit
Format in all cases: biochemical, Fragaria × ananassa
Details in all cases: potassium phosphate pH 7.0, 30°C, 30 min
[1] = tested on: T1, MAT1C (FaMAT1C)
T1 construct: gene MAT1; no tag removal described
From the text: LC-MS malonyltransferase assay, non-linear Michaelis-Menten fit on MAT1C (FaMAT1C)

[2] = tested on: T2, MAT4C1/S1 (FaMAT4C1)
T2 construct: gene MAT4; no tag removal described
From the text: LC-MS malonyltransferase assay, non-linear Michaelis-Menten fit on MAT4C1/S1 (FaMAT4C1)

[3] = tested on: T3, MAT1S (FaMAT1S)
T3 construct: gene MAT1; no tag removal described
From the text: LC-MS malonyltransferase assay, non-linear Michaelis-Menten fit on MAT1S (FaMAT1S)

[4] = tested on: T4, MAT2C1/S1 (MAT2S1)
T4 construct: gene MAT2; no tag removal described
From the text: LC-MS malonyltransferase assay, non-linear Michaelis-Menten fit on MAT2C1/S1 (MAT2S1)

[5] = tested on: T5, MAT2C2/S2 (MAT2S2)
T5 construct: gene MAT2; no tag removal described
From the text: LC-MS malonyltransferase assay, non-linear Michaelis-Menten fit on MAT2C2/S2 (MAT2S2)

[6] = acceptor, co-substrate malonyl-CoA
[7] = donor, co-substrate quercetin-3-glucoside

| Structure (SMILES) | Km [1, 6] | Km [2, 6] | Km [3, 6] | Km [4, 6] | Km [5, 7] | Km [1, 7] | Km [4, 7] | Km [2, 7] | Km [3, 7] | Km [5, 6] |
| --- | --- | --- | --- | --- | --- | --- | --- | --- | --- | --- |
| OC[C@H]1O[C@@H](Oc2cc3c(O)cc(O)cc3[o+]c2-c2ccc(O)c(O)c2)[C@H](O)[C@@H](O)[C@@H]1O [Cyanidin‐3‐glucoside] | 17 ± 3 µM | 63 ± 30 µM | 11 ± 3 µM | – | – | – | – | – | – | – |
| CC(C)(COP(=O)(O)OP(=O)(O)OC[C@H]1O[C@@H](n2cnc3c(N)ncnc32)[C@H](O)[C@@H]1OP(=O)(O)O)[C@@H](O)C(=O)NCCC(=O)NCCSC(=O)CC(=O)O [Malonyl‐CoA] | – | – | – | – | 24 ± 20 µM | 700 ± 200 µM | 22 ± 10 µM | 410 ± 200 µM | 450 ± 200 µM | – |
| OC[C@H]1O[C@@H](Oc2cc3c(O)cc(O)cc3[o+]c2-c2ccc(O)cc2)[C@H](O)[C@@H](O)[C@@H]1O [Pelargonidin‐3‐glucoside] | 270 ± 100 µM | 390 ± 200 µM | 400 ± 200 µM | – | – | – | – | – | – | – |

Now from value to compound:

| Km [1, 6] | Km [2, 6] | Km [3, 6] | Km [4, 6] | Km [5, 7] | Km [1, 7] | Km [4, 7] | Km [2, 7] | Km [3, 7] | Km [5, 6] | Structure (SMILES) |
| --- | --- | --- | --- | --- | --- | --- | --- | --- | --- | --- |
| 150 ± 40 µM | 250 ± 80 µM | 300 ± 60 µM | 790 ± 300 µM | – | – | – | – | – | – | O=c1c(O[C@@H]2O[C@H](CO)[C@@H](O)[C@H](O)[C@H]2O)c(-c2ccc(O)cc2)oc2cc(O)cc(O)c12 [Kaempferol‐3‐glucoside] |
| 310 ± 100 µM | 220 ± 100 µM | 300 ± 100 µM | 180 ± 50 µM | – | – | – | – | – | 180 ± 60 µM | O=c1c(O[C@@H]2O[C@H](CO)[C@@H](O)[C@H](O)[C@H]2O)c(-c2ccc(O)c(O)c2)oc2cc(O)cc(O)c12 [Quercetin‐3‐glucoside] |
